According to patent US20130164814A1, “CONTROL OF ENZYMES IN THE PRODUCTION OF PULP” (KEMIRA OYJ, priority 2010, published 2013):

Columns and labels:
natural catalase = experiment: Peroxide concentration in 3% recovered paper pulp with catalase-containing process water; type: biochemical, bacteria; settings: for Measured H2O2: 3% pulp, dose SPC 6.7 kg/t or H2O2 2.0 kg/t, + 7 kg/t H2O2 at 0 min
Protocol: The effect of SPC product A was studied with a system consisting of recycled fiber pulp and process water with natural catalase. Pulp for the experiment was produced at a recycled fiber pilot plant pulper. Old magazines and old newspapers (OMG/ONP 50/50) were shredded and repulped using process water from a European recycled fiber plant. in the pilot pulper at 19% consistency for 20 minutes with alkaline soap chemistry without peroxide (NaOH 10 kg/t (100%), water glass 15 kg/t (product), soap 5 kg/t). The pulp was stored in freezer until used. Process water from the recycled fiber pilot plant was used in the experiments for diluting the pulp into 3%.
6.7 kg/t of SPC A was added to the pulp and stirred for 5 minutes. After that, 7 kg/t of 100% peroxide was added (at 0 min in FIG. 2 and Table 3) and the concentration of peroxide in the pulp filtrate was measured against time. The SPC addition brought into the system slightly below 2.0 kg peroxide /ton. Therefore, 2.0 kg of peroxide/t representing a reference sample was added to the pulp and stirred for 5 minutes. Again, after that 7 kg/t of 100% peroxide was added (at 0 min in FIG. 2 and Table 3) and the concentration of peroxide was determined by titration against time from the pulp filtrate.

[1] = test system: commercial catalase enzyme; experiment: Peroxide decomposition in pure water-peroxide-catalase system (titration against time); type: biochemical; settings: 100 mg/L SPC
Protocol: (§1) Sodium percarbonate (SPC product E) was tested in a pure distilled water system containing peroxide (210 mg/L), commercial catalase enzyme (1 μL/L) and NaOH to adjust the pH to 9.7 corresponding to the alkaline conditions in a recycled fiber plant. The size of SPC particles comprising NaCO3 coated with Na2SO4 was between 6 and 900 micrometers with maximum 1% >1.6 mm and maximum 2% <0.15 mm. Peroxide decomposition was measured by titration against time. Higher residual peroxide level was obtained with SPC than without any catalase control additive with water-catalase-peroxide system at pH 9.7. Catalase destroyed the 210 mg/I of peroxide very rapidly (FIG. 1, black square). Addition of 100 mg/L of SPC was able to retain the residual peroxide concentration at markedly higher level (triangle). After some initial peroxide degradation, the peroxide level stabilized to ˜80 mg/L. It is known that SPC brings peroxide in the system; this was measured to be 30 mg/L (triangle dotted line). […] Probably catalase enzyme managed to degrade a part of the added peroxide before it was inactivated.

[2] = Effect of SPC on the peroxide titration (SPC without catalase and without added H2O2); type: physicochemical; settings: 100 mg/L SPC
Protocol: as §1

SMILES | Measured H2O2 (natural catalase; 0 min) | Measured H2O2 (natural catalase; 10 min) | Measured H2O2 (natural catalase; 30 min) | Measured H2O2 (natural catalase; 60 min) | Measured benefit: peroxide higher than what only came from SPC ([1]; water-catalase-peroxide system) | Stabilized peroxide level after initial degradation ([1]; 210 mg/L peroxide, catalase 1 μL/L, pH 9.7) | Peroxide decomposition compared with an equal amount of added peroxide (natural catalase; 3% pulp made of recovered paper) | Peroxide brought into the system by SPC [2]
OO [H2O2, hydrogen peroxide, reference compound] | 8.7 kg/t | 6.4 kg/t | 5.8 kg/t | 5.2 kg/t | – | – | – | –
O=C([O-])[O-].O=C([O-])[O-].OO.OO.OO.[Na+].[Na+].[Na+].[Na+] [SPC product E, sodium percarbonate] | – | – | – | – | 50 mg/L | – | – | –
O=C([O-])[O-].O=C([O-])[O-].OO.OO.OO.[Na+].[Na+].[Na+].[Na+] [SPC, sodium percarbonate] | 8.7 kg/t | 7.9 kg/t | 7.4 kg/t | 7.0 kg/t | – | ~80 mg/L | Less peroxide decomposed | 30 mg/L
